Assay results published in paper PMC7809625 (Cell Reports, 2021).

What was measured:
[1] = target: T1, VGLUT1 (Rattus norvegicus, UniProt Q62634); assay: inhibition of Pi uptake in COS7-VGLUT1 cells at […]; assay type: cell-based
T1 sequence (Q62634 1-560): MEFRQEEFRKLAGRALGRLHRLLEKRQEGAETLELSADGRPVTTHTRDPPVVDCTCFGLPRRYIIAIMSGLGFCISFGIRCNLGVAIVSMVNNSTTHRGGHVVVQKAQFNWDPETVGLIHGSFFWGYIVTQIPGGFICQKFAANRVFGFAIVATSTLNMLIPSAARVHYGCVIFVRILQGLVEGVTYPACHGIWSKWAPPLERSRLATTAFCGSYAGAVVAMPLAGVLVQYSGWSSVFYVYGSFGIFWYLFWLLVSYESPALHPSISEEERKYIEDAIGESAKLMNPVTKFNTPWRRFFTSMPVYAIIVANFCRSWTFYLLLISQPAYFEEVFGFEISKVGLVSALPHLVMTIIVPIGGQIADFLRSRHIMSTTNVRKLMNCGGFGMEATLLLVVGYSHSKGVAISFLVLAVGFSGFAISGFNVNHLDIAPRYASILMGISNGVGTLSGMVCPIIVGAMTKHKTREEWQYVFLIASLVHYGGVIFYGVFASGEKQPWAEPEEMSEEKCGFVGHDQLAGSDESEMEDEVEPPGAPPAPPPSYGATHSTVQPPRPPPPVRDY

[2] = target: T1, VGLUT1; assay: inhibition of Na+-dependent Pi uptake in COS7-VGLUT1 cells; assay type: cell-based

Ki [2] [µM] | SMILES | inhibition of Pi uptake in COS7-VGLUT1 cells at 10 uM [1]
– | O=C1OC2(c3cc(I)c(O)c(I)c3Oc3c2cc(I)c(O)c3I)c2c(Cl)c(Cl)c(Cl)c(Cl)c21 [RB, Rose bengal] | The absence of additive effect of NB9 and RB emphasizes the specificity of both inhibitors toward VGLUT1.
1370 | N[C@@H](CCC(=O)O)C(=O)O [glutamate] | –
